# Measured values reported in patent US7326809B2, “Salts of 4- or 5-aminosalicylic acid” (Antibe Therapeutics Inc., priority 2004, dated 2008).
# Counter-ions that a name gives are not always drawn. Like-named read-outs stand apart in the source and are kept apart here.
# How the values were obtained:
# TNBS-induced colitis [1] = experiment: TNBS-induced colitis in mice: disease activity score and MPO activity; type: in vivo, Balb/c mice; conditions: oral every 12 h for 5 days, dose equimolar to mesalamine 50 mg/kg
# Protocol: A standard experimental animal model of colitis induced by intracolonic administration of 2,4,6-trinitrobenzene sulfonic acid (TNBS) to mice is used in the following example. A detailed description of this model has been published (Santucci et al. (2003) Gastroenterology 124:1381-94) and is incorporated herein by reference. Briefly, 6-8 week old Balb/c mice were given TNBS intracolonically at a dose of 1.5 mg in 0.1 mL of 30% ethanol. The mice were randomized to the various treatment groups (n=6 per group). Beginning one hour later and continuing every 12 h for 5 days, the mice were treated orally with vehicle (1% carboxymethylcellulose (CMC)), mesalamine (50 mg/kg) or with an equimolar dose of L-arginine salt of mesalamine.
# The mice were evaluated (blindly) on the final day of the study for the presence of diarrhea and fecal occult blood, and their body weights were measured. […] The mice were then sacrificed and a sample of the colon was excised for measurement of myeloperoxidase (MPO) activity, an indicia for granulocyte infiltration.
# [2] = system: TNF-α, IFN-γ, IL-1, IL-2, IL-10, IL-12 p40, RANTES, COX-1, COX-2, eNOS, iNOS mRNA; experiment: mRNA expression (RT-PCR) of inflammatory cytokines and mediators in colon, TNBS-induced colitis in mice; type: in vivo; conditions: equimolar to mesalamine 50 mg/kg
# Protocol: The same model was used as described above. In this example, the effects of mesalamine (50 mg/kg) were compared to those of equimolar doses of L-arginine salt of mesalamine. Tissues were processed for measurement of a number of genes for inflammatory cytokines and other mediators.
# In particular, mRNA expression in mice of tumour necrosis factor-alpha (TNF-α), interferon gamma (IFN-γ), colonic interleukin (IL)-1, IL-2, IL-10, IL-12 p40, RANTES, cyclooxygenase (COX)-1, COX-2, constitutive endothelial nitric oxide synthase (eNOS), and inducible NOS (iNOS) was measured as described in Wallace et al. (1999) Gastroenterology 117: 557-566, incorporated herein by reference.
# Briefly, reverse transcription-polymerase chain reaction (RT-PCR) was used to detect and quantify mRNA of the particular cytokine/chemokine/enzyme. Glyceraldehyde-3-phosphate dehydrogenase (GAPDH) was used as the “housekeeping gene” for mRNA expression (i.e., as an internal control). For each sample, the ratio of the amplification of the target gene to the amplification of GAPDH (expression of each is measured by performing densitometry on gels) was obtained. Comparisons were then made between the relative amplification (expression) of the target gene in tissues for the treatment groups in comparison to the expression in tissues from healthy controls. Thus, the data shown in the following FIGS. represent the relative expression of the target gene (normalized to GAPDH expression) as a ratio to the expression in healthy controls.
# TNBS-induced colitis [3] = experiment: TNBS-induced colitis in rats: edema, MPO activity, body weight; type: in vivo, male, Wistar rats; conditions: every 12 h for 4 days, salt at 50% of the dose equimolar to mesalamine 50 mg/kg
# Protocol: Colitis was induced in male, Wistar rats by intracolonic administration of TNBS, as outlined in Wallace et al. (1990), Am J Physiol. 258: G527-G534, incorporated herein by reference. Briefly, beginning 1 h later and continuing at 12 h intervals for 4 days, the rats were treated with vehicle (1% CMC), mesalamine (50 mg/kg), L-arginine (equimolar) or L-arginine salt of mesalamine (50% of the equimolar dose). Changes in body weight were recorded, as were incidences of mortality. At the end of the study, the colon was excised and the thickness of the bowel wall was measured with digital callipers, as an index of edema. Also, a sample of tissue was processed for measurement of myeloperoxidase (MPO) activity, as an index of granulocyte infiltration.
# [4] = In vitro anti-oxidant assay with a coloured, stable free radical; type: biochemical; conditions: for % Free Radical Scavenging: in ethanol, means of quadruplicate experiments; for IC50: concentration that reduced the levels of the free radical by 50%, read-out: 50% Inhibitory Concentrations IC50
# Protocol: One of the mechanisms through which mesalamine is thought to provide benefit in the treatment of inflammatory bowel disease is through scavenging of free radicals. Therefore, the anti-oxidant activity of mesalamine was compared to that of L-arginine salt of mesalamine and L-arginine. Anti-oxidant activity of the test drugs was measured in an in vitro assay that employs a coloured, stable free radical as outlined in Vaananen, P. M. et al. (1992) Inflammation 16: 227-240 and Smith, R. C. et al. (1987) Free Rad. Biol. Med. 3: 251-257, both incorporated herein by reference. Drugs with anti-oxidant activity reduce this reagent resulting in a change in colour, which can be detected spectrophotometrically. A range of concentrations of L-arginine salt of mesalamine, mesalamine and L-arginine, all prepared in ethanol, were tested and the concentration that reduced the levels of the free radical by 50% were calculated.
# [5] = following oral ingestion of 500 mg; cited from earlier work
structure (smiles),measurement,setting,value
"N=C(N)NCCC[C@H](N)C(=O)O.Nc1ccc(O)c(C(=O)O)c1 [L-arginine salt of mesalamine, L-arginine salt of 5-aminosalicylic acid]",myeloperoxidase (MPO) activity (granulocyte infiltration),TNBS-induced colitis [1]; colon sample,superior to mesalamine alone in reducing MPO activity
same,disease activity score,TNBS-induced colitis [1]; 0 to 4 scale,superior to mesalamine alone in reducing the disease
same,COX-1 mRNA expression,[2]; colonic,suppressed
same,COX-2 mRNA expression,[2]; colonic,suppressed
same,eNOS mRNA expression,[2]; colonic,suppressed
same,iNOS mRNA expression,[2]; colonic,suppressed
same,IL-10 mRNA expression,[2],did not suppress
same,expression of mRNA for several pro-inflammatory cytokines and chemokines,[2],suppressed
same,"mRNA expression of inflammatory cytokines and other mediators, every endpoint (FIGS. 3 to 8)","[2]; normalized to GAPDH, ratio to healthy controls",superior to mesalamine in every endpoint
same,body weight loss,TNBS-induced colitis [3],superior to both mesalamine and L-arginine
same,colitis-associated edema (thickness of the bowel wall),TNBS-induced colitis [3],superior to both mesalamine and L-arginine
same,myeloperoxidase (MPO) activity (granulocyte infiltration),TNBS-induced colitis [3],superior to both mesalamine and L-arginine
same,% Free Radical Scavenging,[4]; 0.03 mM,5.2%
same,% Free Radical Scavenging,[4]; 0.1 mM,23.9%
same,% Free Radical Scavenging,[4]; 0.3 mM,57.7%
same,% Free Radical Scavenging,[4]; 1 mM,96.3%
same,% Free Radical Scavenging,[4]; 3 mM,100%
same,% Free Radical Scavenging,[4]; 10 mM,100%
same,anti-oxidant potency relative to mesalamine,[4]; from IC50 values,about three-times more potent
"Nc1ccc(O)c(C(=O)O)c1 [L-arginine salt of mesalamine, L-arginine salt of 5-aminosalicylic acid]",IC50,[4]; listed as ATB-428,407 µM
N=C(N)NCCC[C@H](N)C(=O)O [L-arginine],% Free Radical Scavenging,[4]; 0.03 mM,0%
same,% Free Radical Scavenging,[4]; 0.1 mM,0%
same,% Free Radical Scavenging,[4]; 0.3 mM,0%
same,% Free Radical Scavenging,[4]; 1 mM,0%
same,% Free Radical Scavenging,[4]; 3 mM,0%
same,% Free Radical Scavenging,[4]; 10 mM,0%
same,IC50,[4],> 10000 µM
same,anti-oxidant activity,[4]; concentrations of up to 10 mM,did not exhibit any anti-oxidant activity
same,anti-oxidant activity (in words),[4]; summary statement,very little anti-oxidant activity
same,free radical scavenging effects (in words),[4]; summary statement,no free radical scavenging effects
"Nc1ccc(O)c(C(=O)O)c1 [Mesalamine, 5-aminosalicylic acid]",luminal concentrations of mesalamine in the colon,[5],1 mM
same,% Free Radical Scavenging,[4]; 0.03 mM,2.2%
same,% Free Radical Scavenging,[4]; 0.3 mM,23.6%
same,% Free Radical Scavenging,[4]; 1 mM,50.3%
same,% Free Radical Scavenging,[4]; 3 mM,96.1%
same,% Free Radical Scavenging,[4]; 10 mM,100%
same,IC50,[4],1250 µM
